Reference: patent US20250369124A1, “IMIDAZOLINE-SUGAR CONJUGATE COMPOSITIONS AND METHODS FOR INHIBITING CORROSION” (Ecolab USA Inc., priority 2024, published 2025)
Where “and” joins values, the source holds several entries; their conditions need not be identical. Equal entries are not always repeated. Entries after “also recorded” stand apart in the source; their conditions may differ.

Columns and labels:
[1] = Physical stability / water solubility of the inhibitor formulation (observation); format: physicochemical; details: for physical stability of the formulation: 418.4 mM solution in water
[2] = Wheel box test (NACE publication ID182), corrosion of carbon steel coupons in CO2-saturated brine/oil; details: for corrosion inhibitor performance (in words): wheel box test
Text: To determine the efficacy of the compositions as corrosion inhibitors, a wheel box test was used. It is a testing methodology from NACE publication ID182. The method is used to assess the degree of protection afforded to a metal surface that is in contact with water laden with carbon dioxide (C02). The wheel box test is a test that is often used in the field for comparative corrosion inhibitor performance tests. The standard test conditions used in the performance test are in Table 1.
A continuous wheel box test procedure was used to compare the performance of the corrosion inhibitor formulations of the invention in mitigating the corrosion of carbon steel in solutions saturated with carbon dioxide. Into a set of bottles containing the desired brine and oil mixtures, Table 1, clean and pre-weighed coupons were immersed. The solution was purged with carbon dioxide, after which the solutions were dosed with the various concentrations of the formulations. After purging the headspace with carbon dioxide, the bottles were immediately capped to prevent aerial exposure.
Blanks, comprising bottles of untreated mixtures, were used to determine the baseline corrosion rate under the test conditions. The bottles were placed on a rotating wheel under incubation at 80° C. for a period of 24 hours. Following the completion of the incubation, the bottles were retrieved and left to cooled to room temperature. The coupons were removed from the test solutions, cleaned, dried, sandblasted and re-weighed. By comparing the mass loss of the coupons immersed in treated solutions versus the mass loss for coupons placed in untreated solutions, the corrosion rate and protection efficiency were calculated.

[3] = 5 ppm of Corrosion Inhibitor, low dosage comparison, method of Example 4
[4] = 10 ppm of Corrosion Inhibitor, low dosage comparison, method of Example 4
[5] = 25 ppm of Corrosion Inhibitor, low dosage comparison, method of Example 4
[6] = 50 ppm of Corrosion Inhibitor, low dosage comparison, method of Example 4
[7] = 5000 ppm inhibitor, 80° C., 24 hours, CO2 saturated, 80% ASTM Seawater brine / 20% LVT-200
[8] = 20000 ppm inhibitor, 80° C., 24 hours, CO2 saturated, 80% ASTM Seawater brine / 20% LVT-200
[9] = 50000 ppm inhibitor, 80° C., 24 hours, CO2 saturated, 80% ASTM Seawater brine / 20% LVT-200

physical stability of the formulation [1]	SMILES	% Protection [2, 3] [%]	% Protection [2, 4] [%]	% Protection [2, 5] [%]	% Protection [2, 6] [%]	% Protection [2, 7] [%]	% Protection [2, 8] [%]	% Protection [2, 9] [%]	corrosion inhibitor performance (in words) [2]	also measured
physically unstable	CCCCCCCC/C=C\CCCCCCCC1=NCCN1CCN [Comparative Formulation, Acetate, reference compound]	14	24	42	55	89	89	90	robust even at low treatment doses	% Protection ([2]; 500 ppm inhibitor, 80° C., 24 hours, CO2 saturated, 80% ASTM Seawater brine / 20% LVT-200, Acetate): 88% and 89%; % Protection ([2]; 1000 ppm inhibitor, 80° C., 24 hours, CO2 saturated, 80% ASTM Seawater brine / 20% LVT-200, Acetate): 89% and 90%; % Protection ([2]; 2000 ppm inhibitor, 80° C., 24 hours, CO2 saturated, 80% ASTM Seawater brine / 20% LVT-200, Acetate): 90% and 89%; % Protection ([2]; 10000 ppm inhibitor, 80° C., 24 hours, CO2 saturated, 80% ASTM Seawater brine / 20% LVT-200, Acetate): 89% and 90%; average protection efficiency ([2]; average of Table 3 (500-50000 ppm)): 89%
	CC(=O)O.CCCCCCCC/C=C\CCCCCCCC1=NCCN1CCNC1OC(CO)C(O)C(O)C1O (stereo not shown) [Formula 1, (Z)-2-((2-(2-(heptadec-8-en-1-yl)-4,5-dihydro-1H-imidazol-1-yl)ethyl)amino)-6-(hydroxymethyl)tetrahydro-2H-pyran-3,4,5-triol acetate salt]	22	32	54	63	94			perform significantly better than the comparative sample even at low dosage rates	% Protection ([2]; 500 ppm inhibitor, 80° C., 24 hours, CO2 saturated, 80% ASTM Seawater brine / 20% LVT-200): 95%; % Protection ([2]; 1000 ppm inhibitor, 80° C., 24 hours, CO2 saturated, 80% ASTM Seawater brine / 20% LVT-200, listed as Formulation 1, acetate salt): 93% and 94%; % Protection ([2]; 2000 ppm inhibitor, 80° C., 24 hours, CO2 saturated, 80% ASTM Seawater brine / 20% LVT-200, listed as Formulation 1, acetate salt): 93% and 94%; % Protection ([2]; 10000 ppm inhibitor, 80° C., 24 hours, CO2 saturated, 80% ASTM Seawater brine / 20% LVT-200, listed as Formulation 1, acetate salt): 95% and 94%; % Protection ([2]; 20000 ppm inhibitor, 80° C., 24 hours, CO2 saturated, 80% ASTM Seawater brine / 20% LVT-200, listed as Formulation 1, acetate salt): 96% and 95%; % Protection ([2]; 50000 ppm inhibitor, 80° C., 24 hours, CO2 saturated, 80% ASTM Seawater brine / 20% LVT-200, listed as Formulation 1, acetate salt): 95% and 94%
physically stable	CC(=O)[O-].CCCCCCCC/C=C\CCCCCCCC1=[N+](CC(O)c2ccccc2)CCN1CCNC1OC(CO)C(O)C(O)C1O (stereo not shown) [Formula 2, (Z)-2-(heptadec-8-en-1-yl)-3-(2-hydroxy-2-phenylethyl)-1-(2-((3,4,5-trihydroxy-6-(hydroxymethyl)tetrahydro-2H-pyran-2-yl)amino)ethyl)-4,5-dihydro-1H-imidazol-3-ium acetate salt]	28	36	57	73		94	94		solubility in water [1]: high solubility in water; % Protection ([2]; 500 ppm inhibitor, 80° C., 24 hours, CO2 saturated, 80% ASTM Seawater brine / 20% LVT-200, listed as Formulation 2, acetate salt): 91% and 92%; % Protection ([2]; 1000 ppm inhibitor, 80° C., 24 hours, CO2 saturated, 80% ASTM Seawater brine / 20% LVT-200): 92%; % Protection ([2]; 2000 ppm inhibitor, 80° C., 24 hours, CO2 saturated, 80% ASTM Seawater brine / 20% LVT-200, listed as Formulation 2, acetate salt): 91% and 92%; % Protection ([2]; 5000 ppm inhibitor, 80° C., 24 hours, CO2 saturated, 80% ASTM Seawater brine / 20% LVT-200, listed as Formulation 2, acetate salt): 92% and 93%; % Protection ([2]; 10000 ppm inhibitor, 80° C., 24 hours, CO2 saturated, 80% ASTM Seawater brine / 20% LVT-200, listed as Formulation 2, acetate salt): 93% and 94%; corrosion inhibitor performance (in words) ([2]; acetate salt): greatly improved corrosion inhibitor performance even at low dosages; also recorded: highly effective; also recorded: perform significantly better than the comparative sample even at low dosage rates
